In patent US20070208087A1, “Compounds, compositions and methods for the treatment of inflammatory diseases” (priority 2001, published 2007):
“And” between values parts separate entries of the source, which are not always exact repeats. Equal entries are not always repeated. Where two headings read alike, the source gives them in different places.

Assays:
Format in all cases: cell-based
[1] = test system: EOC 13.31 microglial cells; experiment: NO release inhibition screen in LPS/IFNγ stimulated microglia, Griess reaction at 48 hours (Example 7); details: for μM NO release Avg / % inhibition / inhibition at 50 µM: 50 uM + 10 μg/ml LPS/10 ng/ml IFNγ, 48 hours; for % inhibition: 50 µM; for inhibition at 50 µM: Microglia, 48 h
Protocol: In this experiment, additional bis- and tris-dihydroxyaryl compounds were screened for their ability to inhibit nitric oxide release from microglial cells. Microglial cells stimulated with LPS/IFNγ release nitric oxide. […] This is a continuation of screening experiments. EOC 13.31 microglial cells were plated into 96 well plates. At 24 hours and at confluency, cells were treated with 10 μg/ml LPS/10 ng/ml IFNγ+50 uM bis- and tris-dihydroxyaryl compounds.

Microglial cells = experiment: Dose response inhibition of NO release from microglia, 0.5-500 μM (Example 9); details: for μM NO release / μM NO release (No LPS average subtracted): 3 replicates
Protocol: This experiment was designed to determine the dose response inhibition of NO release from microglia by bis- and tris-dihydroxyaryl compounds when stimulated with LPS/IFNγ. Earlier experiments have demonostrated that some bis- and tris-dihydroxyaryl compounds are good inhibitors of NO release from microglia. This experiment is designed to determine a dose response for various effective bis- and tris-dihydroxyaryl compounds. Microglial cells were plated into 96 well plates at 1×10^5 cells/ml. At 48 hours, media was exchanged for media containing 10 ng/ml IFNγ and 10 μg/ml LPS and the following compounds 3, 4, 21, 26 and the positive control L-NAME. The doses tested were: 0.5 μM, 1.0 μM, 5.0 μM, 10 μM, 25 μM, 50 μM, 100 μM, 250 μM, and 500 μM. Nitric oxide release was measured after 48 hours using the Griess reaction.

[2] = test system: TNF-α release from microglia; experiment: TNF-α release from LPS/IFNγ stimulated microglia, TNF-α ELISA (Example 11); details: 50 uM compound, TNF-α release, 10 ug LPS and 10 ng IFNγ, 24 hours; for % inhibition: individual replicates, 50 µM; for inhibition at 50 µM: Microglia, 24 h, read-out: Avg % Inhibition
Protocol: Also, bis- and tris-dihydroxyaryl compound's ability to inhibit NO release strongly supports their interference with the inflammatory cascade and utlimately inhibition of inflammation. Microglia cells were plated at 1×10^5 cells/ml into 96 well plates. At day three, they were treated with 50 μM bis- and tris-dihydroxyaryl compound for 1 hour and then exposed to 10 μg/ml LPS+10 ng/ml IFNγ for 24 hours. 10 μl of media was removed and stored at −80° until TNF-α ELISA assays were performed. Samples were diluted 1:50 before running the TNF-α ELISA (kit commercially available from Sigma).

[3] = test system: EOC 13.31 microglia cells; experiment: Inhibition of NO release from microglia following 24 hours pretreatment (Example 10); details: for inhibition at 50 µM: Microglia
Protocol: This experiment was designed to determine if pretreatment for 24 hours with bis- and tris-dihydroxyaryl compounds changes NO inhibition previously observed with concurrent exposure of bis- and tris-dihydroxyaryl compounds. […] This study seeks to determine if pretreatment with bis- and tris-dihydroxyaryl compounds increases NO release inhibition. EOC 13.31 microglia cells were plated at 1×10^6 cells/ml in 96 well plates. After 48 hours, confluent cells were exposed to 50 μM compound (stock 10 mM in DMSO) prepared in fresh cell culture media. After 24 hours, 10 μg/ml LPS and 10 ng/ml IFNγ was added to wells directly without a media change. Cells were incubated for a further 48 hours and nitric oxide release was measured using the Griess Reaction.

microglia = experiment: Ranking of NO release inhibition (Example 12); details: Microglia, ranking table
Text: The bis- and tris-dihydroxyaryl compounds were ranked in order of effectiveness for the inhibition of NO release as set out in Table 8.

[4] = dose 0.5 μM, LPS/IFNγ, 48 hours
[5] = dose 100 μM, LPS/IFNγ, 48 hours
[6] = dose 250 μM, LPS/IFNγ, 48 hours
[7] = dose 500 μM, LPS/IFNγ, 48 hours
[8] = 50 uM pretreatment 24 hours, then LPS/IFNγ 48 hours, single replicates
[9] = 50 uM pretreatment 24 hours, then LPS/IFNγ 48 hours, read-out: Avg % Inhibition
[10] = 50 uM pretreatment 24 hours, then LPS/IFNγ 48 hours, single replicates, read-out: % inhibition
[11] = 50 μM pretreatment, read-out: inhibition of NO release following pretreatment

## O=C(CCC(=O)NCc1ccc(O)c(O)c1)NCc1ccc(O)c(O)c1 [Compound 67, succinic acid bis(3,4-dihydroxybenzylamide)]
[1]
  μM NO release Avg: 10.579 µM
[1]; single replicates
  % inhibition: 44.82% and 72.72% and 65.01%
[1]; 50 uM, LPS/IFNγ stimulated microglia
  inhibition of NO release, in words: effective inhibitors of NO release
[1]; read-out: Avg. % Inhibition
  inhibition at 50 µM: 60.9%
Microglial cells; Microglia, 48 h, dose 0.5 μM, NO release, LPS/IFNγ, 48 hours, read-out: Avg % Inhibition
  inhibition at 0.5 µM: -2.75%
Microglial cells; Microglia, 48 h, dose 1 μM, NO release, LPS/IFNγ, 48 hours, read-out: Avg % Inhibition
  inhibition at 1 µM: 1.5%
Microglial cells; Microglia, 48 h, dose 5 μM, NO release, LPS/IFNγ
  inhibition at 5 µM: -0.75%
Microglial cells; Microglia, 48 h, dose 10 μM, NO release, LPS/IFNγ
  inhibition at 10 µM: -12.7%
Microglial cells; Microglia, 48 h, dose 25 μM, NO release, LPS/IFNγ
  inhibition at 25 µM: -5.5%
Microglial cells; Microglia, 48 h, dose 50 μM, NO release, LPS/IFNγ
  inhibition at 50 µM: -9.24%
Microglial cells; Microglia, 48 h, dose 100 μM, NO release, LPS/IFNγ, 48 hours, read-out: Avg % Inhibition
  inhibition at 100 µM: 16%
Microglial cells; Microglia, 48 h, dose 250 μM, NO release, LPS/IFNγ, 48 hours, read-out: Avg % Inhibition
  inhibition at 250 µM: 44.4%
Microglial cells; Microglia, 48 h, dose 250 μM, individual replicates, NO release, LPS/IFNγ, 48 hours, read-out: % inhibition
  inhibition at 250 µM: 45.3%
Microglial cells; Microglia, 48 h, dose 500 μM, NO release, LPS/IFNγ, 48 hours, read-out: Avg % Inhibition
  inhibition at 500 µM: 76.9%
Microglial cells; Microglia, 48 h, dose 500 μM, individual replicates, NO release, LPS/IFNγ, 48 hours, read-out: % inhibition
  inhibition at 500 µM: 75.5%
Microglial cells; Microglia, 48 h, highest concentration tested (500 μM), 48 hours, read-out: inhibited NO release by
  inhibition at 500 µM: 76%
Microglial cells; [4]
  μM NO release: 21.528 µM and 20.278 µM and 20.417 µM
  μM NO release (No LPS average subtracted): 19.83 µM and 18.58 µM and 18.72 µM
Microglial cells; dose 0.5 μM, individual replicates, NO release, LPS/IFNγ, 48 hours
  % inhibition: −7.00% and −0.25% and −1.00%
Microglial cells; dose 1 μM, LPS/IFNγ, 48 hours
  μM NO release: 21.528 µM and 19.306 µM and 19.028 µM
  μM NO release (No LPS average subtracted): 19.83 µM and 17.61 µM and 17.33 µM
Microglial cells; dose 1 μM, individual replicates, NO release, LPS/IFNγ, 48 hours
  % inhibition: −7.00% and 5.00% and 6.50%
Microglial cells; dose 5 μM, LPS/IFNγ, 48 hours
  μM NO release: 21.389 µM and 19.583 µM and 20.139 µM
  μM NO release (No LPS average subtracted): 19.69 µM and 17.88 µM and 18.44 µM
Microglial cells; dose 5 μM, individual replicates, NO release, LPS/IFNγ, 48 hours
  % inhibition: −6.25% and 3.50% and 0.50%
Microglial cells; dose 10 μM, LPS/IFNγ, 48 hours
  μM NO release: 22.917 µM and 22.083 µM and 22.778 µM
  μM NO release (No LPS average subtracted): 21.22 µM and 20.38 µM and 21.08 µM
Microglial cells; dose 10 μM, individual replicates, NO release, LPS/IFNγ, 48 hours
  % inhibition: −14.49% and −9.99% and −13.74%
Microglial cells; dose 25 μM, LPS/IFNγ, 48 hours
  μM NO release: 21.944 µM and 20.556 µM and 21.250 µM
  μM NO release (No LPS average subtracted): 20.24 µM and 18.86 µM and 19.55 µM
Microglial cells; dose 25 μM, individual replicates, NO release, LPS/IFNγ, 48 hours
  % inhibition: −1.75%
Microglial cells; dose 50 μM, LPS/IFNγ, 48 hours
  μM NO release: 22.639 µM and 21.111 µM and 22.083 µM
  μM NO release (No LPS average subtracted): 20.94 µM and 19.41 µM and 20.38 µM
Microglial cells; dose 50 μM, individual replicates, NO release, LPS/IFNγ, 48 hours
  % inhibition: −12.99% and −4.75% and −9.99%
Microglial cells; [5]
  μM NO release: 17.917 µM and 14.583 µM and 19.306 µM
  μM NO release (No LPS average subtracted): 16.22 µM and 12.88 µM and 17.61 µM
Microglial cells; dose 100 μM, individual replicates, NO release, LPS/IFNγ, 48 hours
  % inhibition: 12.49% and 30.48% and 5.00%
Microglial cells; [6]
  μM NO release: 11.835 μM (2×) and 12.367 μM
  μM NO release (No LPS average subtracted): 10.14 μM (2×) and 10.67 μM
Microglial cells; dose 250 μM, individual replicates, NO release, LPS/IFNγ, 48 hours
  % inhibition: 42.44%
Microglial cells; [7]
  μM NO release: 6.250 µM and 5.707 µM and 5.978 µM
  μM NO release (No LPS average subtracted): 4.55 µM and 4.01 µM and 4.28 µM
Microglial cells; dose 500 μM, individual replicates, NO release, LPS/IFNγ, 48 hours
  % inhibition: 78.38%
[2]
  % inhibition: −27.48% and −14.06% and −17.41%
  inhibition at 50 µM: -19.6%
[3]; [8]
  % inhibition: 58.88% and 67.74%
[3]; [9]
  inhibition at 50 µM: 65.6%
[3]; [10]
  inhibition at 50 µM: 70.3%
microglia
  inhibition at 50 µM: 61%

## Oc1cc2ncc3cnc4cc(O)c(O)cc4c3c2cc1O [Compound 85, dibenzo[c,f][2,7]napthyridine-2,3,10,11-tetraol]
[1]
  μM NO release Avg: 23.445 µM
[1]; single replicates
  % inhibition: 24.54% and 12.660% and 9.33%
[1]; read-out: Avg. % Inhibition
  inhibition at 50 µM: 15.5%
[2]
  % inhibition: −14.41% and −19.01% and −16.88%
  inhibition at 50 µM: -16.8%
[3]; [8]
  % inhibition: 97.27% and 94.23%
[3]; [9]
  inhibition at 50 µM: 94.9%
[3]; [10]
  inhibition at 50 µM: 93.3%
[3]; [11]
  inhibition at 50 µM: > 75%
microglia
  inhibition at 50 µM: 16%

## O=C(Nc1ccc(O)c(O)c1)C(=O)Nc1ccc(O)c(O)c1 [Compound 63, oxalic acid bis(3,4-dihydroxyanilide)]
[1]
  μM NO release Avg: 23.193 µM
[1]; single replicates
  % inhibition: 15.27%
[1]; read-out: Avg. % Inhibition
  inhibition at 50 µM: 14.2%
[1]; single replicates, read-out: % inhibition
  inhibition at 50 µM: 11.9%
[2]
  % inhibition: −11.29% and −7.18% and −9.97%
  inhibition at 50 µM: -9.48%
[3]; [8]
  % inhibition: 81.97%
[3]; [9]
  inhibition at 50 µM: 82.1%
[3]; [10]
  inhibition at 50 µM: 82.3%
[3]; [11]
  inhibition at 50 µM: > 75%
microglia
  inhibition at 50 µM: 14%

## Oc1ccc(CN(Cc2ccc(O)c(O)c2)Cc2ccc(O)c(O)c2)cc1O [Compound 75, tris(3,4-dihydroxybenzyl)amine]
[1]
  μM NO release Avg: 23.343 µM
[1]; single replicates
  % inhibition: 24.54% and 12.06% and 10.97%
[1]; read-out: Avg. % Inhibition
  inhibition at 50 µM: 15.9%
[2]
  % inhibition: 2.52% and −2.74% and 5.81%
  inhibition at 50 µM: 1.86%
[3]; [8]
  % inhibition: 60.46% and 56.98%
[3]; [9]
  inhibition at 50 µM: 59.6%
[3]; [10]
  inhibition at 50 µM: 61.4%
microglia
  inhibition at 50 µM: 16%

## O=C(CCc1ccc(O)c(O)c1)Nc1ccc(O)c(O)c1 [Compound 57, 3-(3,4-dihydroxyphenyl)propionic acid 3,4-dihydroxyanilide]
[1]
  μM NO release Avg: 23.756 µM
[1]; single replicates
  % inhibition: 16.40% and 20.74% and 5.97%
[1]; read-out: Avg. % Inhibition
  inhibition at 50 µM: 14.4%
[2]
  % inhibition: −6.36% and −3.40% and −1.92%
  inhibition at 50 µM: -3.89%
[3]; [8]
  μM NO release: 0.000 µM
[3]; [9]
  inhibition at 50 µM: 100%
[3]; [10]
  inhibition at 50 µM: 100%
[3]; [11]
  inhibition at 50 µM: > 75%
microglia
  inhibition at 50 µM: 14%

## O=C(CCc1ccc(O)c(O)c1)NCc1ccc(O)c(O)c1 [Compound 58, 3-(3,4-dihydroxyphenyl)propionic acid 3,4-dihydroxybenzylamide]
[1]
  μM NO release Avg: 26.605 µM
[1]; single replicates
  % inhibition: 9.89% and 2.05% and 0.37%
[1]; read-out: Avg. % Inhibition
  inhibition at 50 µM: 4.1%
[2]
  % inhibition: −13.26% and −11.95%
  inhibition at 50 µM: -12.6%
[3]; [8]
  % inhibition: 77.86% and 69.95%
[3]; [9]
  inhibition at 50 µM: 72.5%
[3]; [10]
  inhibition at 50 µM: 69.6%
microglia
  inhibition at 50 µM: 4%
